{"source": "patent US10889611B2", "about": "“Sialyltransferase inhibitors and uses thereof” (Academia Sinica, priority 2015, dated 2021)", "key": {"LN cells [1]": {"test_system": "LN cells", "test": "MTT assay cytotoxicity, LN cells", "type": "cell-based, human", "conditions": "1, 5, 10, 25 and 50 μM for 24 and 48 hours, FIG. 6", "procedure": "(§1) The LN cell line was established by orthotopically injected 5×10^5 PANC-1 cells to the pancreas of SCID mice. After one month, mestastasis was found in lymph nodes, cancerous cells were then isolated from lymph nodes. The genomic DNA of the isolated cancer cells from lymph nodes were extracted and sent for genotyping analysis, which confirmed that LN cells were indeed derived from PANC-1 cells (data not shown).\n(§2) The absorbance of the solution at 570 nm was measured by spectrophotometer.\n(§3) The cytotoxicity of FCW551 on PANC-1 and LN cells were determined by MTT assay in according to procedures described in the “Materials and Methods” section."}, "PANC-1 cells [2]": {"test_system": "PANC-1 cells", "test": "Migration and invasion analysis, PANC-1 cells", "type": "cell-based, human", "conditions": "1 and 20 μM for 24 and 48 hours, FIG. 7", "procedure": "(§4) Migration assays were done using a transwell, in which a polycarbonate filter pre-coated with Matrigel (8-μm pores, Millicell; Millipore, Billerica, Mass.) was inserted therein. Cells were serum-starved for 24 h and then seeded (5×10^5 cells per upper chamber) and treated with or without the present compound(s) (concentrations as indicated), and the assays were run for 6 h. Cells that had migrated to the underside of the inserted filter were stained with hematoxylin solution. The cells in the upper side of the inserted membrane were rubbed with a cotton swab. The migrated cells on the underside were pictured in a 200× magnification field and quantified.\n(§5) In this example, the ability of the FCW551 in suppressing the migration and/or invasion of pancreatic cancer cells was investigated. Briefly, PANC-1 and LN cells were respectively treated with 1 and 20 μM FCW551 for 24 and 48 hours before subjecting to the migration and invasion analysis. Results are illustrated in FIG. 7."}, "LN cells [3]": {"test_system": "LN cells", "test": "Migration and invasion analysis, LN cells", "type": "cell-based, human", "conditions": "1 and 20 μM for 24 and 48 hours, FIG. 7", "text": "as §1, §4, §5"}, "PANC-1 cells [4]": {"test_system": "PANC-1 cells", "test": "MTT assay cytotoxicity, PANC-1 cells", "type": "cell-based, human", "conditions": "1, 5, 10, 25 and 50 μM for 24 and 48 hours, FIG. 6", "procedure": "as §2, §3"}}}
{"compound": "C[C@H](CCC(=O)NCCOCCOCCN=[N+]=[N-])C1CCC2C3CC[C@@H]4C[C@H](NC(=O)[C@H](CC(=O)O)Nc5ccc([N+](=O)[O-])c6nonc56)CC[C@]4(C)C3CC[C@@]21C", "note": "(stereo partly drawn) [Compound 17, (3S)-4-(((3R,5R,10S,13R)-17-((R)-5-((2-(2-(2-azidoethoxy)ethoxy)ethyl)amino)-5-oxopentan-2-yl)-10,13-dimethylhexadecahydro-1H-cyclopenta[a]phenanthren-3-yl)amino)-3-((7-nitrobenzo[c][1,2,5]oxadiazol-4-yl)amino)-4-oxobutanoic acid]", "values": [{"measurement": "cytotoxicity", "setting": "LN cells [1]", "result": "no significant cytotoxicity"}, {"measurement": "melting point", "result": "90 to 91", "unit": "°C"}, {"measurement": "invasion ability", "setting": "PANC-1 cells [2]", "result": "greatly suppressed"}, {"measurement": "migration ability", "setting": "PANC-1 cells [2]", "result": "greatly suppressed"}, {"measurement": "invasion ability", "setting": "LN cells [3]", "result": "greatly suppressed"}, {"measurement": "migration ability", "setting": "LN cells [3]", "result": "greatly suppressed"}, {"measurement": "cytotoxicity", "setting": "PANC-1 cells [4]", "result": "no significant cytotoxicity"}]}
